In ChEMBL document CHEMBL1201862, “PubChem BioAssay data set” (2004):
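In this assay, cells in 96-well plates receive the compound at five concentrations for 48 hours. Endpoints are linearly interpolated between the surrounding concentrations. Here, GI50 denotes the concentration required for 50% inhibition of growth.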 Active and inactive are the calls of the source. Cut-off read from the data, not from the text of the source: active = GI50 up to about 1.1 µM and inactive = higher.

Tests used:
Experiment in all cases: NCI-60 cell line screen, 48 h
[1] = test system: SNB-19
[2] = test system: MOLT-4
[3] = test system: T47D
[4] = test system: 786-0
[5] = test system: ACHN
[6] = test system: MDA-MB-435
[7] = test system: NCI/ADR-RES
[8] = test system: SK-MEL-5
[9] = test system: NCI-H460
[10] = test system: SW-620
[11] = test system: Malme-3M
[12] = test system: HT-29
[13] = test system: SNB-75
[14] = test system: RPMI-8226
[15] = test system: SF-268
[16] = test system: HL-60
[17] = test system: SF-295
[18] = test system: HOP-92
[19] = test system: MDA-N
[20] = test system: CCRF-CEM

Measured: GI50

C=CC(C)(O)/C=C/C=C(\C)C(CC1OC1(C)C)OC(=O)/C(C)=C\C (stereo not given)
inactive: [1] > 100 µM | [2] > 100 µM | [3] > 100 µM | [4] > 100 µM | [5] > 100 µM | [6] > 100 µM | [7] > 100 µM | [8] > 100 µM | [9] > 100 µM | [10] > 100 µM | [11] > 100 µM | [12] > 100 µM | [13] > 100 µM | [14] > 100 µM | [15] > 100 µM | [16] > 100 µM | [17] > 100 µM | [18] > 100 µM | [19] > 100 µM

CCOc1cc(C(c2c(O)c3ccccc3oc2=O)c2c(O)c3ccccc3oc2=O)ccc1OC
inactive: [1] 23.8 µM | [2] 35.9 µM | [3] 16.1 µM | [4] 18.3 µM | [5] 18 µM | [6] 15.3 µM | [7] 27.4 µM | [8] 23.2 µM | [10] 35.4 µM | [11] 19.8 µM | [12] 24.2 µM | [14] 22.3 µM | [15] 18.9 µM | [16] 24.8 µM | [17] 19.4 µM | [18] 16.5 µM | [20] 22.1 µM | [19] 18.1 µM

CC1=NN(c2cccc(Cl)c2)C2(C1=Cc1cccs1)C(Cl)C(=O)N2c1nc2ccccc2s1 (stereo not given)
inactive: [2] 22.3 µM | [3] 28.6 µM | [4] 13.8 µM | [5] 20.8 µM | [6] 30.4 µM | [7] 21.9 µM | [8] 17.4 µM | [9] 20 µM | [10] 38.4 µM | [12] 21.6 µM | [13] 34.8 µM | [14] 17.9 µM | [15] 21.5 µM | [16] 25.6 µM | [17] 19.6 µM | [18] 21.2 µM | [19] 22.1 µM

Nc1cc2c(nnn2C2OC(COCc3ccccc3)C(OCc3ccccc3)C2OCc2ccccc2)c(=O)[nH]1 (stereo not given)
inactive: [1] 22.8 µM | [2] 7.85 µM | [3] 5.9 µM | [4] 19.6 µM | [5] 32.8 µM | [6] 10.9 µM | [7] > 100 µM | [8] 7.26 µM | [9] 15.9 µM | [10] 37 µM | [11] 27.7 µM | [12] 14.2 µM | [13] 25.8 µM | [15] 29.4 µM | [16] 5.47 µM | [17] 17.7 µM | [18] 28.4 µM | [20] 10.3 µM | [19] 10.2 µM

O=C1Nc2ccc(Br)cc2/C1=N/N1C(=O)C(=O)N(C2CCCCC2)C1=S
inactive: [1] 9.64 µM | [2] 2.26 µM | [3] 2.62 µM | [4] 5.46 µM | [5] 4.83 µM | [6] 1.94 µM | [7] 3.22 µM | [8] 4.34 µM | [9] 3.66 µM | [10] 3.56 µM | [11] 3.21 µM | [12] 2.75 µM | [14] 4.25 µM | [15] 6.7 µM | [16] 2.16 µM | [17] 3.16 µM | [18] 14.4 µM | [20] 2.21 µM | [19] 2.02 µM

CCOC(=O)/C(C(=S)NC)=C(/N)N1CCCC1
inactive: [1] > 100 µM | [2] > 100 µM | [3] > 100 µM | [4] > 100 µM | [5] > 100 µM | [6] > 100 µM | [7] > 100 µM | [8] > 100 µM | [9] > 100 µM | [10] > 100 µM | [11] > 100 µM | [12] > 100 µM | [14] > 100 µM | [15] > 100 µM | [16] > 100 µM | [17] > 100 µM | [18] > 100 µM | [20] > 100 µM | [19] > 100 µM

O=S1OC[C@H](CCCl)O1 (stereo not given in full)
inactive: [1] > 100 µM | [2] > 100 µM | [3] > 100 µM | [4] > 100 µM | [5] > 100 µM | [6] > 100 µM | [7] > 100 µM | [8] > 100 µM | [9] > 100 µM | [10] > 100 µM | [11] > 100 µM | [12] > 100 µM | [13] > 100 µM | [14] > 100 µM | [16] > 100 µM | [17] > 100 µM | [18] > 100 µM | [20] > 100 µM | [19] > 100 µM
